# Measured values taken from ChEMBL document CHEMBL3864124, “Tetrodecamycin: An unusual and interesting tetronate antibiotic” (2016).
# Columns and labels:
# Assay type in all cases: functional
# Staphylococcus aureus [1] = experiment: Antibacterial activity against […] Staphylococcus aureus ATCC 25923 after 18 hrs by serial agar dilution method; conditions: ATCC 25923, 18 h
# [2] = Antibacterial activity against Photobacterium damselae subsp. piscicida after 18 hrs by serial agar dilution method
# Staphylococcus aureus [3] = experiment: Antibacterial activity against methicillin resistant Staphylococcus aureus […] after 18 hrs by serial agar dilution method
# Staphylococcus aureus [4] = experiment: Antibacterial activity against Staphylococcus aureus after 18 hrs by serial agar dilution method
# Micrococcus luteus = experiment: Antibacterial activity against Micrococcus luteus after 18 hrs by serial agar dilution method
# Bacillus subtilis = experiment: Antibacterial activity against Bacillus subtilis after 18 hrs by serial agar dilution method
Structure (SMILES),MIC (Staphylococcus aureus [1]) [µg/mL],MIC [2] [µg/mL],MIC (Staphylococcus aureus [3]),further results
C=C1OC(=O)C2=C1O[C@H]1C[C@](C)(CC(O)C1OC(=O)c1ccc3ccccc3c1)C2=O (some centres undefined),8,–,–,–
C[C@@H]1[C@@H]2OC3=C(C(=O)OC3CSCCO)C(=O)[C@@]1(C)[C@@H]1CCCC[C@@]1(O)[C@@H]2O (some centres undefined),–,6.25,25 µg/mL,–
CC(=O)NCCCSCC1OC(=O)C2=C1O[C@@H]1[C@@H](O)[C@]3(O)CCCC[C@H]3[C@](C)(C2=O)[C@@H]1C (some centres undefined),–,6.25,12.5 µg/mL,–
C=C1OC(=O)C2=C1O[C@@H]1[C@@H](OC(=O)c3ccc4ccccc4c3)[C@]3(O)CCCC[C@H]3[C@](C)(C2=O)[C@@H]1C,–,> 100,1.61 µM,–
CC1OC(=O)C2=C1O[C@@H]1[C@@H](O)[C@]3(O)CCCC[C@H]3[C@](C)(C2=O)[C@@H]1C (some centres undefined),–,50,> 100 µg/mL,–
C=C1OC(=O)C2=C1O[C@H]1C[C@](C)(CC(OC(=O)c3ccc4ccccc4c3)C1O)C2=O (some centres undefined),128,–,–,–
C=C1OC(=O)C2=C1O[C@@H]1[C@@H](O)[C@]3(O)CCCC[C@H]3[C@](C)(C2=O)[C@@H]1C,–,1.56 to 18.7,18.7 to 37.4 µM,MIC (Staphylococcus aureus [4]): 18.7 to 37.4 µM; MIC (Micrococcus luteus): 18.7 to 37.4 µM; MIC (Bacillus subtilis): 18.7 to 37.4 µM
C=C1OC(=O)C2=C1O[C@H]1C[C@](C)(CC(O)C1O)C2=O (some centres undefined),> 128,–,–,–
C=C1OC(=O)C2=C1O[C@@H]1C=CC[C@@](C)(C1)C2=O,4,–,–,–
C[C@@H]1[C@@H]2OC3=C(C(=O)OC3(Br)CBr)C(=O)[C@@]1(C)[C@@H]1CCCC[C@@]1(O)[C@@H]2O (some centres undefined),–,12.5,> 100 µg/mL,–
